Data taken from patent publication US20250326794A1, “ANTI-CANCER LEUCINE-RICH PEPTIDES AND USES THEREOF” (KING'S COLLEGE LONDON, priority 2019, published 2025).
Like-named read-outs stand apart in the source and are kept apart here.

What was measured:
[1] = ANTS/DPX liposome leakage assay, 3POPC/1POPG vesicles; assay type: biochemical; conditions: 0.5 mM vesicles; for Peptide Concentration-induced 50% ANTS/DPX leakage at pH 4.8, 3POPC/1POPG Vesicle: pH 4.8, lipid per peptide; for Peptide Concentration-induced 50% ANTS/DPX leakage at pH 7.4, 3POPC/1POPG Vesicle: pH 7.4, lipid per peptide
Procedure: (§1) In brief, 0.5 mM POPC vesicles (grey) or POPC:POPG vesicles (ratio 3:1, black) were incubated with peptide concentrations of 0, 0.02, 0.04, 0.08, 0.16, 0.32, 0.64, 1.25, 2.5, 5, 10, and 20 μM in each A) hydrochloric acid-adjusted phosphate buffered saline (1×, pH 4.8) and B) phosphate buffered saline (1×, pH 7.4).
(§2) The lipids 1-palmitoyl-2-oleoyl-sn-glycero-3-phosphocholine (POPC), 1-palmitoyl-2-oleoyl-snglycero-3-phospho-(1′-rac-glycerol) (POPG) were purchased from Avanti Polar Lipids and dissolved in chloroform. Large unilamellar vesicles (LUVs) were produced by extrusion through 100 nm pore filter using an extruder and filters purchased from Avanti Polar Lipids.
(§3) 5 mM ANTS (8-aminonaphthalene-1,3,6-trisulfonic acid, disodium salt) and 12.5 mM DPX (p-xylene-bis-pyridinium bromide) were entrapped in 0.1 μm diameter extruded vesicles with lipids. Gel filtration chromatography using a Sephadex G-100 (GE Healthcare Life Sciences Inc) was used to remove external free ANTS/DPX from LUVs with entrapped contents. LUVs were diluted to 0.5 mM and used to measure the leakage activity by addition of aliquots of peptides. Leakage was measured after 3 h incubation. 10% Triton was used as the positive control to measure the maximum leakage of the vesicle. Fluorescence emission spectra were recorded using excitation and emission wavelength of 350 nm and 510 nm for ANTS/DPX using a BioTek Synergy H1 Hybrid Multi-Mode Reader.
(§4) Table 4 illustrates peptide concentration-induced 50% ANTS/DPX liposome leakage. 0.5 mM POPC and 3POPC/1POPG vesicles were fixed and incubated with titrated peptide concentration ([…]) each in phosphate buffered saline (1×, pH 7.4) and hydrochloric acid-adjusted phosphate buffered saline (1×, pH 4.8). The values are shown as lipid per peptide. †N-terminus is free, C-terminus: —W—NH2.

[2] = system: HMLER (human breast cancer bulk cell); experiment: cells
From the text: (§5) HMLER (human mammary endothelial cancer cells), HMLER-shEcad (human mammary endothelial cancer stem cells), and MCF-10A (healthy human mammary endothelial) cells were maintained in Mammary Epithelial Cell Growth Medium (MEGM) with supplements and growth factors: bovine pituitary extract (BPE), hydrocortisone, human epidermal growth factor (hEGF), insulin, and gentamicin/amphotericin-B. HEK293T (human embryonic kidney cell), and U2OS (Homo sapiens bone osteosarcoma) cells were maintained in Dulbecco's Modified Eagle's Medium (DMEM) with a final concentration of 10% fetal bovine serum. The cells were grown in T75 flask at 310 K in a humidified atmosphere containing 5% CO2.
(§6) The colourimetric MTT (3-(4,5-dimethylthiazol-2-yl)-2,5-diphenyltetrazolium bromide) assay was used to determine the toxicity of the anticancer peptides and conventional anticancer drugs. 5×10^3 cells were seeded in each well of a 96-well microplate. The cells were incubated overnight. Elevated concentrations of the compounds (0, 0.1, 0.2, 0.4, 0.8, 1.6, 3.1, 6.3, 12.5, 25, 50 and 100 μM) were added and incubated for 72 hr with a total volume 200 μL. The stock solutions of the compounds were prepared as 5 mM solutions in DMSO and diluted using media or in pure water. The final concentration of DMSO in each well was either 0.5% or 0% and this amount was present in the untreated control. After 72 hr, 20 μL of a 4 mg/mL solution of MTT in PBS was added to each well, and the plate was incubated for an additional 4 hr. The MEGM/MTT mixture was aspirated and 100 μL of DMSO was added to dissolve the resulting purple formazan crystals. The absorbance of the solutions in each well was read at 550 nm wavelength. Absorbance values were normalized to either DMSO-containing or non DMSO-containing control wells and plotted as concentration of test compound versus % cell viability. IC50 values were interpolated from the resulting dose dependent curves.
(§7) The peptides were screened against several different human cell lines and their cytotoxicity were determined. Cell lines utilised include MCF-10A (human breast epithelial cell), HMLER (human breast cancer bulk cell), HMLER-shEcad (human breast cancer stem cell), HEK293T (human embryonic kidney cell), and U2OS (human bone osteosarcoma).

[3] = system: HMLER-shEcad (human breast cancer stem cell); experiment: cells
From the text: as §5, §6, §7

[4] = system: HEK293T (human embryonic kidney cell); experiment: cells
From the text: as §5, §6, §7

[5] = Tryptophan fluorescent binding assay, 3POPC/1POPG vesicles; conditions: 50 μM peptide, PBS pH 7.4, lipid per peptide
Procedure: (§8) In brief, 50 μM peptides were fixed and incubated with titrated POPC vesicles (black) or 3POPC/1POPG vesicles (grey) at concentrations of 0, 12.5, 25, 50, 100, 250, 500, 1000, 2500, and 5000 μM in phosphate buffered saline (1×, pH 7.4). The lipid concentration that causes 50% peptide binding was determined using a tryptophan fluorescent binding assay and the values are shown as lipid per peptide.
as §2
(§9) Peptides (50 μM) and POPC/POPG LUVs (600 μM) were prepared in 10 mM phosphate buffer (pH 7.0). The solutions were incubated and measured after 60 minutes. Excitation was fixed at 280 nm (slit 9 nm) and emission was collected from 300 to 450 nm (slit 9 nm). The spectra were recorded using a Synergy H1 Hybrid Multi-Mode Reader (FIG. 3A) and Cytation™ 5 Cell Imaging Multi-Mode Reader (FIG. 2) from BioTek and were averaged over 3 scans.
(§10) Table 3 illustrates the lipid concentration-induced 50% peptide binding onto a liposome. 50 μM peptide was fixed and incubated with titrated lipid (POPC vesicles or 3POPC/1POPG vesicles) at concentrations of 0, 12.5, 25, 50, 100, 250, 500, 1000, 2500, and 5000 μM in phosphate buffered saline (1×, pH 7.4). The lipid concentration that causes 50% peptide binding was determined using tryptophan fluorescent binding assay and the values are shown as lipid per peptide. †N-terminus is free, C-terminus: —W—NH2.

[6] = ANTS/DPX liposome leakage assay, POPC vesicles; assay type: biochemical; conditions: 0.5 mM vesicles; for Peptide Concentration-induced 50% ANTS/DPX leakage at pH 4.8, POPC Vesicle: pH 4.8, lipid per peptide; for Peptide Concentration-induced 50% ANTS/DPX leakage at pH 7.4, POPC Vesicle: pH 7.4, lipid per peptide
Procedure: as §1, §2, §3, §4

[7] = Tryptophan fluorescent binding assay, POPC vesicles; conditions: 50 μM peptide, PBS pH 7.4, lipid per peptide
Procedure: as §8, §2, §9, §10

[8] = system: U2OS (human bone osteosarcoma)
From the text: as §5, §6, §7

Structure (SMILES) | Peptide Concentration-induced 50% ANTS/DPX leakage at pH 4.8, 3POPC/1POPG Vesicle [1] | Peptide Concentration-induced 50% ANTS/DPX leakage at pH 7.4, 3POPC/1POPG Vesicle [1] | IC50 ([2]; read-out: IC50 HMLER, MTT, 72 hr) | IC50 ([3]; read-out: IC50 HMLER-shEcad, MTT, 72 hr) | IC50 ([4]; read-out: IC50 HEK293T, MTT, 72 hr) | Lipid Concentration-induced 50% Peptide Binding, 3POPC/1POPG Vesicle [5] | Peptide Concentration-induced 50% ANTS/DPX leakage at pH 4.8, POPC Vesicle [6] | Peptide Concentration-induced 50% ANTS/DPX leakage at pH 7.4, POPC Vesicle [6] | Lipid Concentration-induced 50% Peptide Binding, POPC Vesicle [7] | IC50 ([8]; read-out: IC50 U20S, MTT, 72 hr) | IC50 ([2]; 72 h) | IC50 ([3]; 72 h) | IC50 ([4]; 72 h) | IC50 ([8]; 72 h)
CC(C)C[C@H](NC(=O)CN)C(=O)N[C@@H](CC(C)C)C(=O)N[C@@H](CC(=O)O)C(=O)N[C@@H](CC(C)C)C(=O)N[C@@H](CC(C)C)C(=O)N[C@@H](Cc1c[nH]cn1)C(=O)N[C@@H](CC(C)C)C(=O)N[C@@H](CC(C)C)C(=O)N[C@@H](CC(C)C)C(=O)N[C@@H](CCCCN)C(=O)N[C@@H](C)C(=O)N[C@@H](C)C(=O)NCC(=O)N[C@@H](Cc1c[nH]c2ccccc12)C(N)=O [DHK] | 183 L/P | 469 L/P | 1.75 ± 0.49 µM | 1.02 ± 0.12 µM | 7.3 ± 0.42 µM | 0.38 L/P | 47 L/P | 747 L/P | 0.20 L/P | 20.4 ± 2.05 µM |  |  |  | 
CC(C)C[C@H](NC(=O)CN)C(=O)N[C@@H](CC(C)C)C(=O)N[C@@H](Cc1c[nH]cn1)C(=O)N[C@@H](CC(C)C)C(=O)N[C@@H](CC(C)C)C(=O)N[C@@H](CCC(=O)O)C(=O)N[C@@H](CC(C)C)C(=O)N[C@@H](CC(C)C)C(=O)N[C@@H](CC(C)C)C(=O)N[C@@H](CCCCN)C(=O)N[C@@H](C)C(=O)N[C@@H](C)C(=O)NCC(=O)N[C@@H](Cc1c[nH]c2ccccc12)C(N)=O [HEK] | 41. L/P | 386 L/P |  |  |  | 0.46 L/P | 97 L/P | 755 L/P | 0.44 L/P |  | 2.35 ± 1.06 µM | 3.45 ± 2.19 µM | 6.95 ± 1.63 µM | 
CC(C)C[C@H](NC(=O)CN)C(=O)N[C@@H](CC(C)C)C(=O)N[C@@H](CCC(=O)O)C(=O)N[C@@H](CC(C)C)C(=O)N[C@@H](CC(C)C)C(=O)N[C@@H](Cc1c[nH]cn1)C(=O)N[C@@H](CC(C)C)C(=O)N[C@@H](CC(C)C)C(=O)N[C@@H](CC(C)C)C(=O)N[C@@H](CCCCN)C(=O)N[C@@H](C)C(=O)N[C@@H](C)C(=O)NCC(=O)N[C@@H](Cc1c[nH]c2ccccc12)C(N)=O [EHK] | 117 L/P | 505 L/P |  |  |  | 0.42 L/P | 55 L/P | 981 L/P | 0.56 L/P |  | 1.35 ± 0.35 µM | 0.71 ± 0.13 µM | 5.35 ± 0.07 µM | 25 µM
